Results: PubChem BioAssay (NCI)
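Each compound was tested at five concentrations against cells in 96-well plates for 48 hours. TGI: concentration producing complete growth inhibition.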

Legend:
Assay in all cases: DTP human tumour cell line panel, 48 h
786-0 renal = system: 786-0 renal
SNB-19 CNS = system: SNB-19 CNS
KM12 colon = system: KM12 colon
U251 CNS = system: U251 CNS
SF-295 CNS = system: SF-295 CNS
UACC-257 melanoma = system: UACC-257 melanoma
HCC-2998 colon = system: HCC-2998 colon
SK-MEL-28 melanoma = system: SK-MEL-28 melanoma
SK-MEL-2 melanoma = system: SK-MEL-2 melanoma
UO-31 renal = system: UO-31 renal
OVCAR-3 ovarian = system: OVCAR-3 ovarian
SK-MEL-5 melanoma = system: SK-MEL-5 melanoma
SR leukemia = system: SR leukemia
CAKI-1 renal = system: CAKI-1 renal
MDA-N = system: MDA-N
HS 578T breast = system: HS 578T breast
T-47D breast = system: T-47D breast

| Structure (SMILES) | TGI (786-0 renal) [µM] | TGI (SNB-19 CNS) [µM] | TGI (KM12 colon) [µM] | TGI (U251 CNS) [µM] | TGI (SF-295 CNS) [µM] | TGI (UACC-257 melanoma) [µM] | TGI (HCC-2998 colon) [µM] | TGI (SK-MEL-28 melanoma) [µM] | TGI (SK-MEL-2 melanoma) [µM] | TGI (UO-31 renal) [µM] | TGI (OVCAR-3 ovarian) [µM] | TGI (SK-MEL-5 melanoma) [µM] | TGI (SR leukemia) [µM] | TGI (CAKI-1 renal) [µM] | TGI (MDA-N) [µM] | TGI (HS 578T breast) [µM] | TGI (T-47D breast) [µM] |
| --- | --- | --- | --- | --- | --- | --- | --- | --- | --- | --- | --- | --- | --- | --- | --- | --- | --- |
| Cc1cc(C(O)CCCc2ccccc2)cc(C)c1O (stereo not given) | > 100 | 67.2 | > 100 | > 100 | 93.9 | 95.6 | > 100 | > 100 | 70.3 | 60.4 | > 100 | 48.9 |  |  |  |  |  |
| [N-]=[N+]=NC1(Cc2ccccc2)C(=O)Nc2ccccc2C1=O (stereo not given) | > 100 | > 100 | > 100 | > 100 | > 100 | > 100 | > 100 | > 100 | > 100 | > 100 | > 100 | > 100 | > 100 | > 100 |  |  |  |
| O=[N+]([O-])c1ccccc1S(=O)(=O)c1cccc2c1NCCC2 | > 100 | > 100 | > 100 |  | > 100 | 63.2 | > 100 | > 100 | > 100 | > 100 | > 100 | 52.3 | > 100 | > 100 | > 100 | > 100 |  |
| CC(C)(C)OC(=O)NC(Cc1ccc(OC(C)(C)C)cc1)C(=O)N[C@H]1CC[C@H](C(=O)O)C1 (stereo not given in full) | > 100 | > 100 | > 100 | > 100 | > 100 | > 100 | > 100 | > 100 | > 100 |  |  | > 100 | > 100 |  | > 100 | > 100 |  |
| CSc1ncc2c(C#N)c3n(C)c4ccccc4n3c(=O)c2n1 | > 100 | > 100 | > 100 | > 100 | > 100 | > 100 | > 100 | > 100 | > 100 | > 100 | > 100 | > 100 | > 100 | > 100 |  | > 100 | > 100 |
| CN(C)/C=N/c1cc(=O)n(C)c(=O)n1C | > 100 | > 100 | > 100 | > 100 | > 100 | > 100 | > 100 | > 100 | > 100 | > 100 | > 100 | > 100 |  | > 100 | > 100 | > 100 | > 100 |
| Cc1ccc(NC(=O)CC(=O)N2N=C(N(c3ccccc3)c3ccccc3)CC2c2ccccc2)cc1 (stereo not given) | > 100 | > 100 | > 100 | > 100 | > 100 | > 100 | > 100 | > 100 | > 100 | > 100 | > 100 | > 100 |  | > 100 |  | 86 | > 100 |
| S=c1[nH]nc(COc2ccc(Cl)cc2)n1-c1ccccc1 | > 100 | > 100 | > 100 | > 100 | > 100 | > 100 | > 100 | > 100 | > 100 | > 100 | > 100 |  |  | 65.8 | > 100 |  | > 100 |
| COC(=O)C1=C(N)C2=C(N)Oc3ccccc3C2CC1=C(C#N)C#N (stereo not given) | > 100 | 70.4 | 29.5 | > 100 | 90.2 | > 100 | 32.9 |  | > 100 | 53.6 | > 100 | 52.7 | > 100 | 72.2 |  | 97.9 | 67.1 |
| NN/C(=N\S(=O)(=O)c1cc(S(=O)(=O)c2ccccc2)cs1)Nc1ccc(Cl)cc1 | > 100 | > 100 | 89.6 | 89.6 | 75.5 | 47.5 |  | > 100 | 38.2 | > 100 | 54.2 | 32.3 | 48.5 | > 100 | 59.2 |  | 55.9 |
| COC(=O)C1=C(C)NC(CF)=C(C(=O)OC)C1c1cccc2c(=O)c3ccccc3oc12 (stereo not given) | 33.8 |  | > 100 |  | 22.7 | > 100 | > 100 | > 100 | > 100 | 92.8 | 66.8 | > 100 | > 100 | 62.3 |  | > 100 | > 100 |
| COc1ccc(NCc2cccc3c(=O)c4ccc(Cl)cc4oc23)cc1 | > 100 |  | > 100 | > 100 | > 100 | > 100 | > 100 | > 100 | > 100 | > 100 | > 100 | > 100 | > 100 | > 100 | > 100 |  | > 100 |
| CC(=O)Nc1ccc2cc(C#N)c(=O)[nH]c2n1 | > 100 | > 100 | > 100 | > 100 | > 100 | > 100 | > 100 | > 100 | > 100 | > 100 | > 100 | > 100 |  | > 100 | > 100 |  | > 100 |
| C#CCC(O)c1ccc(OC)c(OCc2ccccc2)c1 (stereo not given) | > 100 | > 100 | > 100 | > 100 | > 100 | > 100 | > 100 | > 100 | > 100 | > 100 | > 100 | > 100 |  | > 100 | > 100 | > 100 | > 100 |
| O=S(=O)(Cc1ccccc1)c1nnc(S(=O)(=O)c2ccc(Cl)cc2)s1 | 49.5 | 60.2 | > 100 | 94.9 | 54.9 | 48.8 |  | 44 | 50.7 | 44.5 | 58.6 | 33.6 |  | 54 | 33 | 39.8 | > 100 |
